This assay concerns common waterhemp, Sensitive "WUS" Population. The experiment in a line: Greenhouse dose-response, effective dose on atrazine-sensitive waterhemp. The class given is in vivo, Amaranthus tuberculatus. The following applies: 13 days after treatment, visual scale 0-100.

Turning to `CCNc1nc(Cl)nc(NC(C)C)n1` [Atrazine (480 g/L FL), Atrazine], the “ED 20 Estimate” value is reported as 11.127 g ai/ha and the “ED 80 Estimate” value is listed as 39.353 g ai/ha.

Source of the values: patent publication US20250248402A1, “HERBICIDAL COMPOSITIONS AND METHODS FOR CONTROLLING WEEDS” (UPL Mauritius Limited, priority 2024, published 2025).
